Assay: Stabilizer screening (colloid stability after precipitation)
Type: physicochemical
Conditions: Compound A 1.0 mg; for Observation: Stable for: at RT
Description: If the colloid solution was stable over 2 hours (no aggregation, sedimentation, crystal forming), and no aggregation occurred, the sample was lyophilized. • If precipitation occurred, however the colloid solution was not stable over the whole solid formulation procedure, other stabilizers were tested. Results

Observation (2 mg PVP10, 1 mL MeOH, 4 mL water): Precipitation did not occur | Observation: Colloid, Stable for (2 mg PVP40, 1 mL EtOH, 4 mL water): Colloid, Stable for 15 min | Observation (2 mg PVP40, 1 mL EtOH, 7 mL 0.05 mg/mL BAC solution): Aggregated immediately | Observation (2 mg PVP40, 1 mL EtOH, 7 mL 0.05 mg/mL DSS solution): Aggregated immediately | Observation (2 mg PVP40, 1 mL EtOH, 7 mL 0.05 mg/mL Mannitol solution): Aggregated immediately | Observation (2 mg PVP40, 1 mL EtOH, 7 mL 0.05 mg/mL NaOAc solution): Aggregated immediately | Observation (2 mg PVP40, 1 mL EtOH, 7 mL 0.05 mg/mL SDS solution): Aggregated immediately | Observation (2 mg PVP40, 1 mL EtOH, 7 mL 0.05 mg/mL citric acid solution): Aggregated immediately | Observation (2 mg PVP40, 1 mL EtOH, 7 mL 0.5 mg/mL BAC solution): Aggregated immediately | Observation: Aggregated within (2 mg PVP40, 1 mL EtOH, 7 mL 0.5 mg/mL DSS solution): Aggregated within 1 hour | Observation (2 mg PVP40, 1 mL EtOH, 7 mL 0.5 mg/mL Mannitol solution): Aggregated immediately | Observation: Aggregated within (2 mg PVP40, 1 mL EtOH, 7 mL 0.5 mg/mL NaOAc solution): Aggregated within 1 hour | Observation: Aggregated within (2 mg PVP40, 1 mL EtOH, 7 mL 0.5 mg/mL SDS solution): Aggregated within 1 hour | Observation (2 mg PVP40, 1 mL EtOH, 7 mL 0.5 mg/mL citric acid solution): Aggregated immediately | Observation (2 mg PVP40, 1 mL IPA, 4 mL water): Aggregated | Observation (2 mg PVP40, 1 mL MeOH, 4 mL water): Precipitation did not occur | Observation: Colloid, Stable for (2 mg PVPK90, 1 mL EtOH, 4 mL water): Colloid, Stable for 5 min | Observation (2 mg PVPK90, 1 mL IPA, 4 mL water): Aggregated | Observation (2 mg PVPK90, 1 mL MeOH, 4 mL water): Precipitation did not occur | Observation (2 mg Pluronic PE6800, 1 mL ACE, 4 mL water): Aggregated immediately | Observation (2 mg Pluronic PE6800, 1 mL EtOH, 4 mL water): Aggregated | Observation (2 mg Pluronic PE6800, 1 mL IPA, 4 mL water): Aggregated | Observation (2 mg Pluronic PE6800, 1 mL MeOH, 4 mL water): Cloudy immediately | Observation (2 mg Pluronic PE6800, 1 mL THF, 5 mL water): Aggregated | Observation (2 mg Pluronic PE10500, 1 mL ACE, 4 mL water): Aggregated immediately | Observation (2 mg Pluronic PE10500, 1 mL EtOH, 4 mL water): Aggregated | Observation (2 mg Pluronic PE10500, 1 mL IPA, 4 mL water): Aggregated | Observation (2 mg Pluronic PE10500, 1 mL MeOH, 4 mL water): Cloudy immediately | Observation (2 mg Pluronic PE10500, 1 mL THF, 4 mL water): Aggregated | Observation: Aggregated within (2 mg Soluplus, 1 mL ACE, 4 mL water): Aggregated within 5 min | Observation: Slightly opalescent colloid, stable for (2 mg Soluplus, 1 mL EtOH, 4 mL water): stable for 5 min | Observation (2 mg Soluplus, 1 mL MeOH, 4 mL water): Precipitation did not occur | Observation (2 mg Soluplus, 1 mL THF, 4 mL water): Aggregated | Observation (2 mg Solutol, 1 mL ACE, 4 mL water): Aggregated immediately | Observation (2 mg Solutol, 1 mL EtOH, 4 mL water): Aggregated | Observation (2 mg Solutol, 1 mL IPA, 4 mL water): Aggregated | Observation (2 mg Solutol, 1 mL MeOH, 4 mL water): Aggregated | Observation (2 mg Solutol, 1 mL THF, 4 mL water): Aggregated | Observation: Aggregated within (2 mg TPGS, 1 mL ACE, 4 mL water): Aggregated within 5 min | Observation (2 mg TPGS, 1 mL EtOH, 4 mL water): Aggregated | Observation (2 mg TPGS, 1 mL IPA, 4 mL water): Aggregated | Observation: Aggregated after (2 mg TPGS, 1 mL MeOH, 4 mL water): Aggregated after 25 min | Observation (2 mg TPGS, 1 mL THF, 4 mL water): Aggregated | Observation (2 mg Tetronic, 1 mL ACE, 4 mL water): Aggregated immediately | Observation (2 mg Tetronic, 1 mL EtOH, 4 mL water): Aggregated | Observation (2 mg Tetronic, 1 mL IPA, 4 mL water): Aggregated | Observation (2 mg Tetronic, 1 mL MeOH, 4 mL water): Cloudy immediately | Observation (2 mg Tetronic, 1 mL THF, 4 mL water): Aggregated | Observation: Aggregated within (3 mg Luviskol VA64, 1 mL EtOH, 0.0001M NaOH solution): Aggregated within 1 day | Observation: Stable for (3 mg Luviskol VA64, 1 mL EtOH, 0.001M NaOH solution): Stable for 3 days at RT | Observation: Stable for (3 mg Luviskol VA64, 1 mL EtOH, 0.01M NaOH solution): Stable for 3 days at RT | Observation: Stable for (3 mg Luviskol VA64, 1 mL EtOH, 0.1M NaOH solution): Stable for 3 days at RT | Observation (3 mg Luviskol VA64, 1 mL EtOH, 7 mL 0.05 mg/mL NaOAc solution): Aggregated immediately | Observation: Stable for (3 mg Luviskol VA64, 1 mL EtOH, 7 mL 0.5 mg/mL NaOAc solution): Stable for 3 days at RT | Observation (3 mg PVP10, 1 mL EtOH, 7 mL 0.05 mg/mL NaOAc solution): Aggregated immediately | Observation: Aggregated within (3 mg PVP10, 1 mL EtOH, 7 mL 0.5 mg/mL NaOAc solution): Aggregated within 1 hour | Observation (3 mg PVP40, 1 mL EtOH, 7 mL 0.05 mg/mL NaOAc solution): Aggregated immediately | Observation: Stable for (3 mg PVP40, 1 mL EtOH, 7 mL 0.5 mg/mL NaOAc solution): Stable for 1 day at RT | Observation (4 mg Luviskol VA64, 1 mL EtOH, 7 mL 0.05 mg/mL NaOAc solution): Aggregated immediately | Observation: Aggregated within (4 mg Luviskol VA64, 1 mL EtOH, 7 mL 0.5 mg/mL NaOAc solution): Aggregated within 1 day | Observation (4 mg PVP10, 1 mL EtOH, 7 mL 0.05 mg/mL NaOAc solution): Aggregated immediately | Observation: Aggregated within (4 mg PVP10, 1 mL EtOH, 7 mL 0.5 mg/mL NaOAc solution): Aggregated within 1 hour | Observation (4 mg PVP40, 1 mL EtOH, 7 mL 0.05 mg/mL NaOAc solution): Aggregated immediately | Observation: Aggregated within (4 mg PVP40, 1 mL EtOH, 7 mL 0.5 mg/mL NaOAc solution): Aggregated within 1 day | Observation (no stabilizer (—), 1 mL ACE, 4 mL water): Aggregated | Observation (no stabilizer (—), 1 mL EtOH, 4 mL water): Aggregated | Observation (no stabilizer (—), 1 mL IPA, 4 mL water): Aggregated | Observation (no stabilizer (—), 1 mL MeOH, 4 mL water): Aggregated
Structure (SMILES): CC(C)(C)c1cc(-c2cc(-c3ccc(C(=O)O)cc3)ccc2OCCO)ccc1N1CCCC1 [Compound A, 3″-tert-butyl-4′-(2-hydroxyethoxy)-4″-pyrrolidin-1-yl[1,1′;3′,1″]-terphenyl-4-carboxylic acid]
